Experimental data published in publication PMC3914206.

Experiments:
panel of 442 kinases [1] = target: T1, panel of 442 kinases (Homo sapiens, UniProt P78368); format: binding; settings: Compound Concentration 10 µM
T1 construct: purchased KINOMEscan
From the text: (§1) We assessed the selectivity of members of this scaffold using the KINOMEscan methodology across a near comprehensive panel of 442 kinases [[18,27]].

panel of 442 kinases [2] = target: T2, panel of 442 kinases (Homo sapiens, UniProt Q96PY6); format: binding; settings: Compound Concentration 10 µM
T2 construct: purchased KINOMEscan
T2 sequence (Q96PY6 1-1258): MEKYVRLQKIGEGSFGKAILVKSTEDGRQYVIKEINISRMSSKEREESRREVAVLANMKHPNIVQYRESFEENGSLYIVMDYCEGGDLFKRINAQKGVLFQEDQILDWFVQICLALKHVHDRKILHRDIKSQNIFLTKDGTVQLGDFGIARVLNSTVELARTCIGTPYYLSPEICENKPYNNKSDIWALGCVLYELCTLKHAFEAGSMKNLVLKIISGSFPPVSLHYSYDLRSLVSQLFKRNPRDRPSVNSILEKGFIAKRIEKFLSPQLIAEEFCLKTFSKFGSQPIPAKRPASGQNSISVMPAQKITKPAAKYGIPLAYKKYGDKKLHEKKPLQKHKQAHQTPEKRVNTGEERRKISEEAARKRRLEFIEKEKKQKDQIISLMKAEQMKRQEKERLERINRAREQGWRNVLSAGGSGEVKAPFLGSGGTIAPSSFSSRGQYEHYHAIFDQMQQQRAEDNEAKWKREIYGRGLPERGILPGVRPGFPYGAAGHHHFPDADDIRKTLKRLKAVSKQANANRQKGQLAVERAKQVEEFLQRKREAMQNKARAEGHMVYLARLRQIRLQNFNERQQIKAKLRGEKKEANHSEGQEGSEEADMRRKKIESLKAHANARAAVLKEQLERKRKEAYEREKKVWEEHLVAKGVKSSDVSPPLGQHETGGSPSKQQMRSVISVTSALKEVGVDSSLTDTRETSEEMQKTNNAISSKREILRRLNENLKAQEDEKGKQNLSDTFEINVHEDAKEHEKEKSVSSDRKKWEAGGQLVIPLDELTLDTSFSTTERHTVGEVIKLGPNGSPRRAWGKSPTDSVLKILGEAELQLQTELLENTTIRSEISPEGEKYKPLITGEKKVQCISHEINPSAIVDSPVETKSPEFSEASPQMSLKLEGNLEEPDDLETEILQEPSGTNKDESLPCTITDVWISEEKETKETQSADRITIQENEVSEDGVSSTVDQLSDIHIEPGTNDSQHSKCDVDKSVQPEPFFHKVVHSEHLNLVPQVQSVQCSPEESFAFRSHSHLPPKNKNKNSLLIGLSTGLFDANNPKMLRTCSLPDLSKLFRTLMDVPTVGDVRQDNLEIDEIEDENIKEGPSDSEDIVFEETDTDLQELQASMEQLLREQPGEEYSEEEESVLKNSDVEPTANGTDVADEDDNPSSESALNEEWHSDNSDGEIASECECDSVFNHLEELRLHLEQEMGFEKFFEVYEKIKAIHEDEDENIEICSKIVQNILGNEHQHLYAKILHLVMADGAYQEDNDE
From the text: as §1

T1 sequence (P78368 whole entry): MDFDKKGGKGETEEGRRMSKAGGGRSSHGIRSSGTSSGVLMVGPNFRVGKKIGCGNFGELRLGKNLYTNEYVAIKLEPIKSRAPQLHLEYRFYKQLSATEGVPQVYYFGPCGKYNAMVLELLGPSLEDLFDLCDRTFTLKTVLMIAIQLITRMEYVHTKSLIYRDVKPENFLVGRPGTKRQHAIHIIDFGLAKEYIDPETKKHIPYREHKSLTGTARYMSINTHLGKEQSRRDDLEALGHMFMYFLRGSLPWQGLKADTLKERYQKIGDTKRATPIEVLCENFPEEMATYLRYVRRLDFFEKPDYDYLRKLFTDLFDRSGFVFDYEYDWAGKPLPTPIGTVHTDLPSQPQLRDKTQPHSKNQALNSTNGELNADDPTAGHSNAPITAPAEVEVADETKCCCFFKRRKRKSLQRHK

Compound	KINOMEscan: CSNK1G2 (panel of 442 kinases [1])	KINOMEscan: NEK1 (panel of 442 kinases [2])
COc1cc(C(=O)N2CCC(N3CCN(C)CC3)CC2)ccc1Nc1ncc2c(n1)N(C)c1ccccc1C(=O)N2C [15 (LRRK2-IN-1)]	100	83
COc1cc(C(=O)N2CCC(N3CCN(C)CC3)CC2)ccc1Nc1ncc2c(n1)N1CCc3cccc(c31)C(=O)N2C [Compound 24]		63
COc1cc(C(=O)N2CCC(N3CCN(C)CC3)CC2)ccc1Nc1ncc2c(n1)N(C1CCCC1)c1ccccc1C(=O)N2C [Compound 25, 11-cyclopentyl-2-((2-methoxy-4-(4-(4-methylpiperazin-1-yl)piperidine-1-carbonyl)phenyl)amino)-5-methyl-5H-benzo[e]pyrimido[5,4-b][1,4]diazepin-6(11H)-one]	91	72
CCOc1cc(C(=O)N2CCC(N3CCN(C)CC3)CC2)ccc1Nc1ncc2c(n1)N(C1CCCC1)c1ccccc1C(=O)N2C [Compound 26]	96	84
